{"source": "patent US20180002319A1", "about": "“MACROCYCLIC PICOLINAMIDE COMPOUNDS WITH FUNGICIDAL ACTIVITY” (DOW AGROSCIENCES LLC, priority 2014, published 2018)", "type_in_all_cases": "in vivo", "key": {"Leptosphaeria nodorum": {"system": "Leptosphaeria nodorum", "experiment": "Wheat Glume Blotch (LEPTNO) fungicidal activity", "details": "Parastagonospora nodorum, 24 h, 1DP (1 Day Protectant), read-out: LEPTNO Disease Control", "protocol": "Technical grades of materials were dissolved in acetone, which were then mixed with nine volumes of H2O containing 110 ppm Triton X-100. The fungicide solutions were applied onto wheat seedlings using an automated booth sprayer to run-off. All sprayed plants were allowed to air dry prior to further handling. All fungicides were evaluated using the aforementioned method for their activity vs. all target diseases, unless stated otherwise. Wheat leaf blotch and brown rust activity were also evaluated using track spray applications, in which case the fungicides were formulated as EC formulations, containing 0.1% Trycol 5941 in the spray solutions. Wheat plants (variety Yuma) were grown from seed in a greenhouse in 50% mineral soil/50% soil-less Metro mix until the first leaf was fully emerged, with 7-10 seedlings per pot. These plants were inoculated with an aqueous spore suspension of Zymoseptoria tritici either prior to or after fungicide treatments. After inoculation the plants were kept in 100% relative humidity (one day in a dark dew chamber followed by two to three days in a lighted dew chamber at 20° C.) to permit spores to germinate and infect the leaf. The plants were then transferred to a greenhouse set at 20° C. for disease to develop. When disease symptoms were fully expressed on the 1st leaves of untreated plants, infection levels were assessed on a scale of 0 to 100 percent disease severity. Percent disease control was calculated using the ratio of disease severity on treated plants relative to untreated plants. Example C: Evaluation of Fungicidal Activity: Wheat Glume Blotch (Leptosphaeria nodorum; Bayer Code […]) Wheat plants (variety Yuma) were grown from seed in a greenhouse in 50% mineral soil/50% soil-less Metro mix until the first leaf was fully emerged, with 7-10 seedlings per pot. These plants were inoculated with an aqueous spore suspension of Leptosphaeria nodorum 24 hr after fungicide treatments. After inoculation the plants were kept in 100% relative humidity (one day in a dark dew chamber followed by two days in a lighted dew chamber at 20° C.) to permit spores to germinate and infect the leaf. The plants were then transferred to a greenhouse set at 20° C. for disease to develop. Fungicide formulation, application and disease assessment followed the procedures as described in the Example A."}, "Alternaria solani": {"system": "Alternaria solani", "experiment": "Tomato Early Blight (ALTESO) fungicidal activity", "details": "24 h, 1DP (1 Day Protectant), read-out: ALTESO Disease Control", "protocol": "Technical grades of materials were dissolved in acetone, which were then mixed with nine volumes of H2O containing 110 ppm Triton X-100. The fungicide solutions were applied onto wheat seedlings using an automated booth sprayer to run-off. All sprayed plants were allowed to air dry prior to further handling. All fungicides were evaluated using the aforementioned method for their activity vs. all target diseases, unless stated otherwise. Wheat leaf blotch and brown rust activity were also evaluated using track spray applications, in which case the fungicides were formulated as EC formulations, containing 0.1% Trycol 5941 in the spray solutions. Wheat plants (variety Yuma) were grown from seed in a greenhouse in 50% mineral soil/50% soil-less Metro mix until the first leaf was fully emerged, with 7-10 seedlings per pot. These plants were inoculated with an aqueous spore suspension of Zymoseptoria tritici either prior to or after fungicide treatments. After inoculation the plants were kept in 100% relative humidity (one day in a dark dew chamber followed by two to three days in a lighted dew chamber at 20° C.) to permit spores to germinate and infect the leaf. The plants were then transferred to a greenhouse set at 20° C. for disease to develop. When disease symptoms were fully expressed on the 1st leaves of untreated plants, infection levels were assessed on a scale of 0 to 100 percent disease severity. Percent disease control was calculated using the ratio of disease severity on treated plants relative to untreated plants. Example M: Evaluation of Fungicidal Activity: Tomato Early Blight (Alternaria solani; Bayer Code […]) Tomato plants (variety Outdoor Girl) were propagated in soil-less Metro mix, with each pot having one plant, and used when 12 to 14 days old. Test plants were inoculated with an aqueous spore suspension of Alternaria solani 24 hr after fungicide treatments. After inoculation the plants were kept in 100% relative humidity (one day in a dark dew chamber followed by two to three days in a lighted dew chamber at 20° C.) to permit spores to germinate and infect the leaf. The plants were then transferred to a growth room at 22° C. for disease to develop. Fungicide formulation, application and disease assessment on the sprayed leaves followed the procedures as described in the Example A."}, "Puccinia triticina": {"system": "Puccinia triticina", "experiment": "Wheat Brown Rust (PUCCRT) fungicidal activity", "details": "for pest or weed control at 121.5 g/ha: Low Volume application, 121.5 g/H; for pest or weed control at 100 ppm: High Volume application", "summary_of_the_method": "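Disease severity (0–100%) on first leaves compared with untreated plants gives percent control. Plants (wheat var. Yuma) received spore inoculum before or after run-off spraying with compound in acetone/Triton X-100 water, held overnight at 22° C, 100% RH, then in a 24° C greenhouse.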"}, "[1]": {"details": "24 h, 1 day protectant, read-out: PUCCRT disease control, 1DP (1 Day Protectant)"}, "[2]": {"details": "72 h, 3 day curative, read-out: PUCCRT disease control, 3DC (3 Day Curative)"}}, "note": "Where two headings read alike, the source gives them in different places.", "data": [{"smiles": "COc1ccnc(C(=O)N[C@H]2COCC[C@H](Cc3ccccc3)[C@@H](OCC(C)C)[C@H](C)OC2=O)c1OC(C)=O", "note": "[Compound 21]", "values": [{"measurement": "pest or weed control at 100 ppm", "setting": "Leptosphaeria nodorum", "value": "> 80", "unit": "%"}, {"measurement": "pest or weed control at 100 ppm", "setting": "Alternaria solani", "value": "> 80", "unit": "%"}, {"measurement": "pest or weed control at 121.5 g/ha", "setting": "Puccinia triticina; [1]", "value": "> 80", "unit": "%"}, {"measurement": "pest or weed control at 121.5 g/ha", "setting": "Puccinia triticina; [2]", "value": "> 80", "unit": "%"}]}, {"smiles": "COc1ccnc(C(=O)N[C@H]2COCC[C@H](Cc3ccccc3)[C@@H](OCC(C)C)[C@H](C)OC2=O)c1OCOC(C)=O", "note": "[Compound 20]", "values": [{"measurement": "pest or weed control at 100 ppm", "setting": "Leptosphaeria nodorum", "value": "> 80", "unit": "%"}, {"measurement": "pest or weed control at 100 ppm", "setting": "Alternaria solani", "value": "> 80", "unit": "%"}, {"measurement": "pest or weed control at 121.5 g/ha", "setting": "Puccinia triticina; [1]", "value": "> 80", "unit": "%"}, {"measurement": "pest or weed control at 121.5 g/ha", "setting": "Puccinia triticina; [2]", "value": "> 80", "unit": "%"}]}, {"smiles": "CCCCO[C@H]1CCOC[C@H](NC(=O)c2nccc(OC)c2OCOC(C)=O)C(=O)O[C@@H](C)[C@@H]1OCc1ccccc1", "note": "[Compound 2]", "values": [{"measurement": "pest or weed control at 100 ppm", "setting": "Leptosphaeria nodorum", "value": "> 80", "unit": "%"}, {"measurement": "pest or weed control at 100 ppm", "setting": "Alternaria solani", "value": "< 80", "unit": "%"}, {"measurement": "pest or weed control at 100 ppm", "setting": "Puccinia triticina; [1]", "value": "> 80", "unit": "%"}, {"measurement": "pest or weed control at 121.5 g/ha", "setting": "Puccinia triticina; [1]", "value": "> 80", "unit": "%"}, {"measurement": "pest or weed control at 100 ppm", "setting": "Puccinia triticina; [2]", "value": "> 80", "unit": "%"}, {"measurement": "pest or weed control at 121.5 g/ha", "setting": "Puccinia triticina; [2]", "value": "> 80", "unit": "%"}]}, {"smiles": "CCCCCO[C@H]1[C@H](C)OC(=O)[C@@H](NC(=O)c2nccc(OC)c2OCOC(C)=O)CCCC[C@@H]1Oc1ccccc1", "note": "[Compound 17]", "values": [{"measurement": "pest or weed control at 100 ppm", "setting": "Alternaria solani", "value": "> 80", "unit": "%"}, {"measurement": "pest or weed control at 100 ppm", "setting": "Puccinia triticina; [1]", "value": "> 80", "unit": "%"}, {"measurement": "pest or weed control at 100 ppm", "setting": "Puccinia triticina; [2]", "value": "> 80", "unit": "%"}]}, {"smiles": "CCCCO[C@H]1CCOC[C@H](NC(=O)c2nccc(OC)c2OCOC(C)=O)C(=O)O[C@@H](C)[C@@H]1OC(=O)C1CC1", "note": "[Compound 5]", "values": [{"measurement": "pest or weed control at 100 ppm", "setting": "Leptosphaeria nodorum", "value": "> 80", "unit": "%"}, {"measurement": "pest or weed control at 100 ppm", "setting": "Alternaria solani", "value": "< 80", "unit": "%"}, {"measurement": "pest or weed control at 100 ppm", "setting": "Puccinia triticina; [1]", "value": "> 80", "unit": "%"}, {"measurement": "pest or weed control at 100 ppm", "setting": "Puccinia triticina; [2]", "value": "> 80", "unit": "%"}]}, {"smiles": "COc1ccnc(C(=O)N[C@H]2COCC[C@@H](OCC(C)C)[C@@H](OCC(C)C)[C@H](C)OC2=O)c1OCOC(C)=O", "note": "[Compound 6]", "values": [{"measurement": "pest or weed control at 100 ppm", "setting": "Leptosphaeria nodorum", "value": "> 80", "unit": "%"}, {"measurement": "pest or weed control at 100 ppm", "setting": "Alternaria solani", "value": "< 80", "unit": "%"}, {"measurement": "pest or weed control at 100 ppm", "setting": "Puccinia triticina; [1]", "value": "> 80", "unit": "%"}, {"measurement": "pest or weed control at 100 ppm", "setting": "Puccinia triticina; [2]", "value": "> 80", "unit": "%"}]}, {"smiles": "CCCCO[C@H]1CCOC[C@H](NC(=O)c2nccc(OC)c2OCOC(C)=O)C(=O)O[C@@H](C)[C@@H]1OC(=O)c1ccccc1", "note": "[Compound 4]", "values": [{"measurement": "pest or weed control at 100 ppm", "setting": "Leptosphaeria nodorum", "value": "> 80", "unit": "%"}, {"measurement": "pest or weed control at 100 ppm", "setting": "Alternaria solani", "value": "> 80", "unit": "%"}, {"measurement": "pest or weed control at 100 ppm", "setting": "Puccinia triticina; [1]", "value": "> 80", "unit": "%"}, {"measurement": "pest or weed control at 121.5 g/ha", "setting": "Puccinia triticina; [1]", "value": "> 80", "unit": "%"}, {"measurement": "pest or weed control at 100 ppm", "setting": "Puccinia triticina; [2]", "value": "> 80", "unit": "%"}, {"measurement": "pest or weed control at 121.5 g/ha", "setting": "Puccinia triticina; [2]", "value": "> 80", "unit": "%"}]}, {"smiles": "CCCCO[C@H]1CCOC[C@H](NC(=O)c2nccc(OC)c2OCOC(C)=O)C(=O)O[C@@H](C)[C@@H]1OC(=O)C(C)C", "note": "[Compound 3]", "values": [{"measurement": "pest or weed control at 100 ppm", "setting": "Leptosphaeria nodorum", "value": "> 80", "unit": "%"}, {"measurement": "pest or weed control at 100 ppm", "setting": "Alternaria solani", "value": "> 80", "unit": "%"}, {"measurement": "pest or weed control at 100 ppm", "setting": "Puccinia triticina; [1]", "value": "> 80", "unit": "%"}, {"measurement": "pest or weed control at 100 ppm", "setting": "Puccinia triticina; [2]", "value": "> 80", "unit": "%"}]}, {"smiles": "COc1ccnc(C(=O)N[C@H]2CCCC[C@H](Oc3ccccc3)[C@@H](Oc3ccccc3)[C@H](C)OC2=O)c1OCOC(C)=O", "note": "[Compound 19]", "values": [{"measurement": "pest or weed control at 100 ppm", "setting": "Alternaria solani", "value": "> 80", "unit": "%"}, {"measurement": "pest or weed control at 100 ppm", "setting": "Puccinia triticina; [1]", "value": "> 80", "unit": "%"}, {"measurement": "pest or weed control at 121.5 g/ha", "setting": "Puccinia triticina; [1]", "value": "> 80", "unit": "%"}, {"measurement": "pest or weed control at 100 ppm", "setting": "Puccinia triticina; [2]", "value": "> 80", "unit": "%"}, {"measurement": "pest or weed control at 121.5 g/ha", "setting": "Puccinia triticina; [2]", "value": "> 80", "unit": "%"}]}, {"smiles": "COc1ccnc(C(=O)N[C@H]2CCOC[C@H](Oc3ccccc3)[C@@H](Oc3ccccc3)[C@H](C)OC2=O)c1OCOC(C)=O", "note": "[Compound 37]", "values": [{"measurement": "pest or weed control at 100 ppm", "setting": "Leptosphaeria nodorum", "value": "> 80", "unit": "%"}, {"measurement": "pest or weed control at 121.5 g/ha", "setting": "Puccinia triticina; [1]", "value": "> 80", "unit": "%"}, {"measurement": "pest or weed control at 121.5 g/ha", "setting": "Puccinia triticina; [2]", "value": "> 80", "unit": "%"}]}, {"smiles": "CCCO[C@H]1[C@H](C)OC(=O)[C@@H](NC(=O)c2nccc(OC)c2OCOC(C)=O)CCCC[C@@H]1Oc1ccccc1", "note": "[Compound 18]", "values": [{"measurement": "pest or weed control at 100 ppm", "setting": "Alternaria solani", "value": "> 80", "unit": "%"}, {"measurement": "pest or weed control at 100 ppm", "setting": "Puccinia triticina; [1]", "value": "> 80", "unit": "%"}, {"measurement": "pest or weed control at 100 ppm", "setting": "Puccinia triticina; [2]", "value": "> 80", "unit": "%"}]}]}
